“Also recorded” adds a separate entry of the source.
Columns and labels:
platelets = conditions: Zhang et al. 2007; cited from earlier work
mice = conditions: mouse, in vivo; cited from earlier work
[1] = tested on: AbCID CAR (BCL-xL) Jurkat NFAT reporter cells co-cultured with K562 target cells; experiment: Quantification of CAR T-cell activation (NFAT-GFP, CD69, IL-2); assay type: cell-based; conditions: for NFAT-dependent GFP reporter expression / IL-2 secretion / CD69 expression: antibody 5 nM, 20 hours
Procedure: Jurkat cells expressing CARs were mixed with antigen positive (CD19^+) or antigen negative (CD19^−) K562 target cells at a ratio of 1:2. […] After overnight incubation at 37° C., cells were pelleted by centrifugation. NFAT-dependent GFP reporter expression was quantified by flow cytometry using a FACSCanto II (BD Biosciences). CD69 expression was quantified by immunofluorescence flow cytometry using a FACSCanto II (BD Biosciences) using an APC anti-human CD69 Antibody (Biolegend 310910). IL-2 secretion was quantified by collection of supernatants and analysis by ELISA using the BD Human IL-2 ELISA set as per manufacturer's protocol. All flow cytometry data analysis was performed using FlowJo software and all plots were generated using Prism software (GraphPad).

K562 cells = experiment: Cellular toxicity of ABT-737, CellTiter-Glo; assay type: cell-based; conditions: K562, 24 h, viability relative to DMSO; read-out: IC50 (cell death)
Procedure: (§1) W T Jurkat, AbCID CAR Jurkat, Conventional CAR Jurkat, WT K562, CD19^+ K562, and HEK293T cells were plated in 96-well plates at ˜5000 cells per well. Each cell line was incubated with varying concentrations of ABT-737 (10 μM initial, 3-fold serial-dilutions, 8 times) or DMSO alone (0.1%). After 24 h, cell viability was measured using a CellTiter-Glo® Luminescent Cell Viability Assay (Promega) and the manufacturer's standard protocol. The percent viability relative to DMSO treatment was plotted and analyzed for each cell line using Prism software (GraphPad).

HEK293T cells = experiment: Cellular toxicity of ABT-737, CellTiter-Glo; assay type: cell-based; conditions: 24 h, viability relative to DMSO, read-out: IC50 (cell death)
Procedure: as §1

Jurkat cells = experiment: Cellular toxicity of ABT-737, CellTiter-Glo; assay type: cell-based; conditions: 24 h, viability relative to DMSO, read-out: IC50 (cell death)
Procedure: as §1

[2] = tested on: scAZ1-VPR and dCas9-BCL-xL in reporter HEK293T cell line containing the Gal4-UAS-Fluc operon; experiment: CRISPRa-mediated luciferase assay (scAZ1 AbCID gene circuit); assay type: cell-based
Procedure: For CRISPRa-mediated transcriptional activation, the reporter HEK293T cell line containing the Gal4-UAS-Fluc operon (Collaboration, O. R, Nat. Methods, 13:191-192 (2016)) was seeded at ˜0.5×10^6 cells/well in 6-well plates and cultured under 5% CO2 at 37° C. overnight. The cells were transfected with a plasmid encoding scAZ1-VPR and another plasmid encoding dCas9-BCL-xL and Gal4 sgRNA at a 1:1 ratio. The transfected cells were trypsinized and resuspended in fresh DMEM supplemented with 10% FBS 24 h after transfection. Cells were then aliquoted into a 96-well poly-D-lysine coated plate (Corning) and allowed to adhere for 24 h before 20 nM ABT-737 was added to induce CRISPRa activity. Cells were then further incubated for 48 h before evaluation of luciferase gene expression. To determine luciferase activity, cells were lysed with Bright-Glo Luciferase Assay substrate (Promega) and analyzed using an Infinite M200 PRO plate reader (Tecan). The luciferase activities were background-subtracted with a negative control (cells expressing full-length dCas9-VPR and PHOX2B negative-sgRNA), and normalized against a positive control (cells expressing full-length dCas9-VPR and Gal4 sgRNA). For investigation of cellular dose response, different concentrations of ABT-737 (0.014 nM, 0.041 nM, 0.12 nM, 0.37 nM, 1.1 nM, 3.3 nM, 10 nM, 30 nM, 90 nM, 270 nM) were added to the cells after cells were transfected and aliquoted to a 96-well plate.

BCL-xL/ABT-263 complex = molecular target: T1, BCL-xL/ABT-263 complex (Homo sapiens, UniProt Q07817); experiment: Biolayer interferometry, Fab binding to BCL-xL in the presence of ABT-263; conditions: ABT-263 in place of ABT-737
T1 construct: C-terminally truncated BCL-xL (residues 2-215) with an N-terminal AviTag; made in house; host or cells: E. coli BL21(DE3), pMCSG7 vector
T1 sequence (Q07817 2-215, one chain of several): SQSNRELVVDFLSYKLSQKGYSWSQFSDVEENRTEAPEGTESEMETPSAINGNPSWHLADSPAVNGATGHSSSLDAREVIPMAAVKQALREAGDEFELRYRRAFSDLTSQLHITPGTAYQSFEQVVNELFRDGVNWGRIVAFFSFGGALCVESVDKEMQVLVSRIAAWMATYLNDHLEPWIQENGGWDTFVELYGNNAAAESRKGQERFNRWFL
Procedure: Biolayer interferometery data were measured using an Octet RED384 instrument (ForteBio). Biotinylated BCL-xL was immobilized on a Streptavidin (SA) biosensor using a 200 nM solution. Serial dilutions of Fabs in kinetics buffer (PBS, pH 7.4, 0.05% Tween-20, 0.2% BSA, 10 μM biotin) with small molecule (1 μM), peptide (5 μM), or vehicle (0.05% DMSO) were used as analyte. Affinity (KD) and kinetic parameters (kon and koff) were calculated from a global fit (1:1) of the data using the Octet RED384 software.

[3] = tested on: T cells co-cultured with CD19+ K562 cells; experiment: AbCID-regulated inducible bispecific T cell engager, T cell activation; assay type: cell-based; conditions: for T-cell activation, CD69 expression / T-cell activation, NFAT signaling (GFP expression): antibody conjugated to anti-CD19, Bcl-2 conjugated to anti-CD3, addition of ABT-199
Text: A representative embodiment of an AbCID-regulated inducible bispecific T cell engager is shown in FIG. 19A, having a first AbCID component conjugated to an anti-CD3 antibody and a second AbCID component conjugated to an antibody that recognizes a tumor specific antigen. Administration of the small molecule dimerizer allows for generation of the CID complex, resulting in recruitment of T cells to cancer cells expressing the tumor specific antigen.

CN(C)CC[C@H](CSc1ccccc1)Nc1ccc(S(=O)(=O)NC(=O)c2ccc(N3CCN(Cc4ccccc4-c4ccc(Cl)cc4)CC3)cc2)cc1[N+](=O)[O-] [ABT-737]
concentration observed to be toxic to platelets (platelets): low μM | tolerability in mice (mice): generally well tolerated by mice, except for platelet toxicity | concentration range used to induce AbCID CAR activity [1]: < 100 nM | T-cell activation by ABT-737 on its own ([1]; ABT-737 alone): not able to induce T-cell activation on its own | NFAT-dependent GFP reporter expression ([1]; CD19+ K562 target cells): dose-dependent activation of the NFAT pathway | IL-2 secretion ([1]; CD19+ K562 target cells, ELISA): dose-dependent secretion of IL-2 | CD69 expression ([1]; CD19+ K562 target cells, immunofluorescence flow cytometry): dose-dependent expression of CD69 | CD69 expression ([1]; CD19− K562 target cells): no expression was observed | IL-2 secretion ([1]; CD19− K562 target cells): no secretion was observed | NFAT-dependent GFP reporter expression ([1]; CD19− K562 target cells): not observed; also recorded: no activation was observed | IC50 (K562 cells): > 10 µM | IC50 (HEK293T cells): ~10 µM | IC50 (Jurkat cells): ~2 µM | concentration range used to induce CRISPRa activity [2]: < 270 nM | EC50 ([2]; 48-hour induction, AbCID-gated system, read-out: EC50 of induction of luciferase expression): 0.0089 ± 0.001 µM | luciferase expression ([2]; ABT-737 20 nM, 48 hours, Gal4 sgRNA): robust expression of luciferase | luciferase expression with a negative sgRNA ([2]; AbCID-gated system with a negative sgRNA): no increase in luciferase expression

CC1(C)CCC(c2ccc(Cl)cc2)=C(CN2CCN(c3ccc(C(=O)NS(=O)(=O)c4ccc(N[C@H](CCN5CCOCC5)CSc5ccccc5)c(S(=O)(=O)C(F)(F)F)c4)cc3)CC2)C1 [ABT-263]
formation of a dimer (BCL-xL/ABT-263 complex): does not result in the formation of a dimer

B1: AZ34: Fab clone selected against Bcl-2 + ABT-199 complex (antibody)
heavy: EISEVQLVESGGGLVQPGGSLRLSCAASGFNIYYSSMHWVRQAPGKGLEWVASISSYSGSTSYADSVKGRFTISADTSKNTAYLQMNSLRAEDTAVYYCARGGWFWGSGGYSSAFDYWGQGTLVTVSSASTKGPSVFPLAPSSKSTSGGTAALGCLVKDYFPEPVTVSWNSGALTSGVHTFPAVLQSSGLYSLSSVVTVPSSSLGTQTYICNVNHKPSNTKVDKKVEPKSCDKTHTGGSHHHHHH
light: SDIQMTQSPSSLSASVGDRVTITCRASQSVSSAVAWYQQKPGKAPKLLIYSASSLYSGVPSRFSGSRSGTDFTLTISSLQPEDFATYYCQQHHSLITFGQGTKVEIKRTVAAPSVFIFPPSDSQLKSGTASVVCLLNNFYPREAKVQWKVDNALQSGNSQESVTEQDSKDSTYSLSSTLTLSKADYEKHKVYACEVTHQGLSSPVTKSFNRGECGGSDYKDDDDK
T-cell activation, CD69 expression [3]: increased expression of CD69 | T-cell activation, NFAT signaling (GFP expression) [3]: activation of NFAT signaling

B2: AZ21: Fab clone selected against Bcl-2 + ABT-199 complex (antibody)
heavy: EISEVQLVESGGGLVQPGGSLRLSCAASGFNLSYSSMHWVRQAPGKGLEWVASISPYSSYTYYADSVKGRFTISADTSKNTAYLQMNSLRAEDTAVYYCARGYWSFYGMDYWGQGTLVTVSSASTKGPSVFPLAPSSKSTSGGTAALGCLVKDYFPEPVTVSWNSGALTSGVHTFPAVLQSSGLYSLSSVVTVPSSSLGTQTYICNVNHKPSNTKVDKKVEPKSCDKTHTGGSHHHHHH
light: SDIQMTQSPSSLSASVGDRVTITCRASQSVSSAVAWYQQKPGKAPKLLIYSASSLYSGVPSRFSGSRSGTDFTLTISSLQPEDFATYYCQQYYAHYLFTFGQGTKVEIKRTVAAPSVFIFPPSDSQLKSGTASVVCLLNNFYPREAKVQWKVDNALQSGNSQESVTEQDSKDSTYSLSSTLTLSKADYEKHKVYACEVTHQGLSSPVTKSFNRGECGGSDYKDDDDK
T-cell activation, CD69 expression [3]: increased expression of CD69 | T-cell activation, NFAT signaling (GFP expression) [3]: activation of NFAT signaling | level of T-cell activation (NFAT activation) versus ABT-199 concentration ([3]; titration of ABT-199): tunable by titration of ABT-199 concentration

B3: AZ35: Fab clone selected against Bcl-2 + ABT-199 complex (antibody)
heavy: EISEVQLVESGGGLVQPGGSLRLSCAASGFNLYYSSIHWVRQAPGKGLEWVAYISSYSGYTYYADSVKGRFTISADTSKNTAYLQMNSLRAEDTAVYYCARGGWYWASGSYYGAMDYWGQGTLVTVSSASTKGPSVFPLAPSSKSTSGGTAALGCLVKDYFPEPVTVSWNSGALTSGVHTFPAVLQSSGLYSLSSVVTVPSSSLGTQTYICNVNHKPSNTKVDKKVEPKSCDKTHTGGSHHHHHH
light: SDIQMTQSPSSLSASVGDRVTITCRASQSVSSAVAWYQQKPGKAPKLLIYSASSLYSGVPSRFSGSRSGTDFTLTISSLQPEDFATYYCQQYGYSVLITFGQGTKVEIKRTVAAPSVFIFPPSDSQLKSGTASVVCLLNNFYPREAKVQWKVDNALQSGNSQESVTEQDSKDSTYSLSSTLTLSKADYEKHKVYACEVTHQGLSSPVTKSFNRGECGGSDYKDDDDK
T-cell activation, CD69 expression [3]: increased expression of CD69 | T-cell activation, NFAT signaling (GFP expression) [3]: activation of NFAT signaling

From patent publication US11939379B2 (The Regents of the University of California, priority 2017, dated 2024)
